“Also recorded” adds a separate entry of the source. Where a name gives a salt, the structure may show the parent alone.
Test: Stability of a galantamine hydrobromide aqueous solution as a function of pH (HPLC, degradation products)
Type: physicochemical
Settings: 10 mg/ml aqueous solution; neutral (water pH 5.2); 80° C.; storage 24 hours
Procedure: (c) Stability of a Galantamine Hydrobromide Aqueous Solution as a Function of pH
A galantamine hydrobromide 10 mg/ml aqueous solution was stored in acid, neutral and alkaline conditions at 80° C. for 1 up to 24 hours. After storage, the solutions were analyzed using HPLC for the presence of degradation products.

**Q.** With COc1ccc2c3c1O[C@H]1C[C@@H](O)C=C[C@@]31CCN(C)C2 [Galantamine hydrobromide, [4aS-(4aα, 6β, 8aR*)]-4a, 5,9,10,11,12-hexa-hydro-3-methoxy-11-methyl-6H-benzofuro[3a,3,2-ef][2]benzazepin-6-ol] as the molecule, how does the Degradation compounds read?
**A.** Its Degradation compounds is “remained stable; also recorded: No degradation detected”.

Source: patent US20050063998A1, “Oral solution containing galantamine and a sweetening agent” (priority 1999, published 2005)
